# Test results from the kinase profiling compilation of Christmann-Franck et al. (2016).
# What was measured:
# Assay in all cases: KINOMEscan competition binding
# Details in all cases: compound 10.0 µM
# STK16 (human) = STK16 (human) (UniProt O75716)
# PRKD3 (human) = PRKD3 (human) (UniProt O94806)
# EPHA3 (human) = EPHA3 (human) (UniProt P29320)
# CLK3 (human) = CLK3 (human) (UniProt P49761)
# CDK7 (human) = CDK7 (human) (UniProt P50613)
# TESK1 (human) = TESK1 (human) (UniProt Q15569)
# MUSK (human) = MUSK (human) (UniProt O15146)
# DCLK1 (human) = DCLK1 (human) (UniProt O15075)
# STK17A (human) = STK17A (human) (UniProt Q9UEE5)
# [1] = test system: KIT (human), P10721 [V559D]
# AURKA (human) = AURKA (human) (UniProt O14965)
# PDPK1 (human) = PDPK1 (human) (UniProt O15530)
# CDK16 (human) = CDK16 (human) (UniProt Q00536)
# RPS6KA1 KD2 (human) = RPS6KA1 KD2 (human) (UniProt Q15418)
# FER (human) = FER (human) (UniProt P16591)
# MAPK8 (human) = MAPK8 (human) (UniProt P45983)
# MAPK7 (human) = MAPK7 (human) (UniProt Q13164)
# SGK110 (human) = SGK110 (human) (UniProt P0C264)
# CSNK1E (human) = CSNK1E (human) (UniProt P49674)
# Sequence of CSNK1E (human) (P49674 whole entry, looked up): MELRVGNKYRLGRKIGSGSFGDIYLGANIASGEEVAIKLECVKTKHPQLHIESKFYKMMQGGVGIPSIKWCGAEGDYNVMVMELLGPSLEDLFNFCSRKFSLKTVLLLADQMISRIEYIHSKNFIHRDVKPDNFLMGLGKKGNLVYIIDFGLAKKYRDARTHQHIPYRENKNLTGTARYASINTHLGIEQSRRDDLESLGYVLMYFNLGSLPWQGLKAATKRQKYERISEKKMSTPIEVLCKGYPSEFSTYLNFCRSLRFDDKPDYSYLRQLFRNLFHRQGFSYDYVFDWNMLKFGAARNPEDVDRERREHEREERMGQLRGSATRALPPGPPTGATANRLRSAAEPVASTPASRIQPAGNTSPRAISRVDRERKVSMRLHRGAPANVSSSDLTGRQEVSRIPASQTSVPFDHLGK
# WEE2 (human) = WEE2 (human) (UniProt P0C1S8)
# FGFR2 (human) = FGFR2 (human) (UniProt P21802)
# SIK2 (human) = SIK2 (human) (UniProt Q9H0K1)
# Sequence of SIK2 (human) (Q9H0K1 whole entry, looked up): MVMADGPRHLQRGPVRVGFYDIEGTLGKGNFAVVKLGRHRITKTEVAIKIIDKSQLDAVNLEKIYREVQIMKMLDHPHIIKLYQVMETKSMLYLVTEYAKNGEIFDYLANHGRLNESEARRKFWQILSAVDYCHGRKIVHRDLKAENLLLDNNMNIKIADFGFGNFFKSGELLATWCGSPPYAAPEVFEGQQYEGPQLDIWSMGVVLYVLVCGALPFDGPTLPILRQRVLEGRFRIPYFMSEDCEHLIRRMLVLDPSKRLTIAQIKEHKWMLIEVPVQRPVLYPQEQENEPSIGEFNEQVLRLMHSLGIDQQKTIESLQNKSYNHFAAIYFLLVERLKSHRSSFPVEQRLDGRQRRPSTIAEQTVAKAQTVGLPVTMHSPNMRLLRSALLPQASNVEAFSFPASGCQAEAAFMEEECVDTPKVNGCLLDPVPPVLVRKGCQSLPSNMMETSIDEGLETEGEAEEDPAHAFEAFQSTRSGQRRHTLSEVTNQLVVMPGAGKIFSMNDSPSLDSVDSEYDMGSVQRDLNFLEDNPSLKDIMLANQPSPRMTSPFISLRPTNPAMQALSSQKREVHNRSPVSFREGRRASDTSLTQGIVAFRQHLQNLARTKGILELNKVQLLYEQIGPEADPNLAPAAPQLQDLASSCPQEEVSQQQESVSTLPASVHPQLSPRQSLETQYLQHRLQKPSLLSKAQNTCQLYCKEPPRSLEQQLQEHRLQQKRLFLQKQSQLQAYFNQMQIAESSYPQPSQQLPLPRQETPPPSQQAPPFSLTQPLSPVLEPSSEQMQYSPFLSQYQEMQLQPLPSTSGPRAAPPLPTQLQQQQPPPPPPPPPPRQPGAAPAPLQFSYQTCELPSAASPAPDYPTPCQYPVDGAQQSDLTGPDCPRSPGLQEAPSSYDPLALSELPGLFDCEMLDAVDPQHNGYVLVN
# ADCK4 (human) = ADCK4 (human) (UniProt Q96D53)
# TNNI3K (human) = TNNI3K (human) (UniProt Q59H18)
# DDR2 (human) = DDR2 (human) (UniProt Q16832)
# PRKACB (human) = PRKACB (human) (UniProt P22694)
# ACVR1B (human) = ACVR1B (human) (UniProt P36896)
# ULK1 (human) = ULK1 (human) (UniProt O75385)
# ULK2 (human) = ULK2 (human) (UniProt Q8IYT8)
# Sequence of ULK2 (human) (Q8IYT8 whole entry, looked up): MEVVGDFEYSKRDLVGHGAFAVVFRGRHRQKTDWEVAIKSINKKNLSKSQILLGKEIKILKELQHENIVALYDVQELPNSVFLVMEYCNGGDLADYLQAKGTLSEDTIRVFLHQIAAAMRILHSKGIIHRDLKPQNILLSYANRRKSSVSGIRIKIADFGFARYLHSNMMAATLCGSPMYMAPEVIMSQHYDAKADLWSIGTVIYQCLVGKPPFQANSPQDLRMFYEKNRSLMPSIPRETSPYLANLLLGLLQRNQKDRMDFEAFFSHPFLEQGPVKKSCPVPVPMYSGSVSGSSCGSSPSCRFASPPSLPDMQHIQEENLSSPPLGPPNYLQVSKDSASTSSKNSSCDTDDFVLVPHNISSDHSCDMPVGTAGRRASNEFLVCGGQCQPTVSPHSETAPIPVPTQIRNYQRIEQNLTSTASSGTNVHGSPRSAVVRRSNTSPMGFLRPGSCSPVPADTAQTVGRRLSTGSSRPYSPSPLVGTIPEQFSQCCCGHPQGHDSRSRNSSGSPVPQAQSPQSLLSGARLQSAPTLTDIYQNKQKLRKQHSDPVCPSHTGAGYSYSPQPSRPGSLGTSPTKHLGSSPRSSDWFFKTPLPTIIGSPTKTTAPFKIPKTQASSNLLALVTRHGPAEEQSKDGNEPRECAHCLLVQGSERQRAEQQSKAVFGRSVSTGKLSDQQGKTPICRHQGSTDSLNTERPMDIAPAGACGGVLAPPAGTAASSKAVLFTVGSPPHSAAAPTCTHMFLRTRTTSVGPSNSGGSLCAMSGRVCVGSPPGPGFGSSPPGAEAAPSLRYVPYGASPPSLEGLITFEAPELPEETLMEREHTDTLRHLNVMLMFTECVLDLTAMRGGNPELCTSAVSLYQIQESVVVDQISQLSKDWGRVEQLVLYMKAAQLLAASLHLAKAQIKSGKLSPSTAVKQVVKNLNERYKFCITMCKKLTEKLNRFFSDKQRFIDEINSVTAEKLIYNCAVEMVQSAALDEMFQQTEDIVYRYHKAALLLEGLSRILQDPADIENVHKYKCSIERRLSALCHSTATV
# MST1R (human) = MST1R (human) (UniProt Q04912)
# ERBB2 (human) = ERBB2 (human) (UniProt P04626)
# PRKAA2 (human) = PRKAA2 (human) (UniProt P54646)
# EPHB1 (human) = EPHB1 (human) (UniProt P54762)
# RPS6KA2 KD2 (human) = RPS6KA2 KD2 (human) (UniProt Q15349)
# Sequence of RPS6KA2 KD2 (human) (Q15349 whole entry, looked up): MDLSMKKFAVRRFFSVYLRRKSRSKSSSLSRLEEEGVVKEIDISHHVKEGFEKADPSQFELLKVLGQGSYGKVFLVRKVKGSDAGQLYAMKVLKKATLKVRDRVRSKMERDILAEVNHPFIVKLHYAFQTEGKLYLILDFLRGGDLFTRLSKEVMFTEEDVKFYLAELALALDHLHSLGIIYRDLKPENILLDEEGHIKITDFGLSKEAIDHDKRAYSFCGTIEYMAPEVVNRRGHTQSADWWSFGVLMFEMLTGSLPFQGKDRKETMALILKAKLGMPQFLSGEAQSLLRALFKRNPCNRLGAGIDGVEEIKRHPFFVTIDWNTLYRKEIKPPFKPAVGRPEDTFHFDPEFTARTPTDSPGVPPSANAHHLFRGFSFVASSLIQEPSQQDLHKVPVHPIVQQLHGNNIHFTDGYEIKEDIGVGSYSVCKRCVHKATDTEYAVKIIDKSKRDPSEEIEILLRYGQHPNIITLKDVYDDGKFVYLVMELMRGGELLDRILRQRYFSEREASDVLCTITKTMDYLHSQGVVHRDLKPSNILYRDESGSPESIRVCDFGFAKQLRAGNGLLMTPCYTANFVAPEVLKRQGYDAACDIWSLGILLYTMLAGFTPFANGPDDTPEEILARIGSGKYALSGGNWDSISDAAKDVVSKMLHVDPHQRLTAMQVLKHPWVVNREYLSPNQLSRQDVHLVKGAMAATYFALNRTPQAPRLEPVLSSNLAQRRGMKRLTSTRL
# CLK1 (human) = CLK1 (human) (UniProt P49759)
# MAP4K2 (human) = MAP4K2 (human) (UniProt Q12851)
# Sequence of MAP4K2 (human) (Q12851 whole entry, looked up): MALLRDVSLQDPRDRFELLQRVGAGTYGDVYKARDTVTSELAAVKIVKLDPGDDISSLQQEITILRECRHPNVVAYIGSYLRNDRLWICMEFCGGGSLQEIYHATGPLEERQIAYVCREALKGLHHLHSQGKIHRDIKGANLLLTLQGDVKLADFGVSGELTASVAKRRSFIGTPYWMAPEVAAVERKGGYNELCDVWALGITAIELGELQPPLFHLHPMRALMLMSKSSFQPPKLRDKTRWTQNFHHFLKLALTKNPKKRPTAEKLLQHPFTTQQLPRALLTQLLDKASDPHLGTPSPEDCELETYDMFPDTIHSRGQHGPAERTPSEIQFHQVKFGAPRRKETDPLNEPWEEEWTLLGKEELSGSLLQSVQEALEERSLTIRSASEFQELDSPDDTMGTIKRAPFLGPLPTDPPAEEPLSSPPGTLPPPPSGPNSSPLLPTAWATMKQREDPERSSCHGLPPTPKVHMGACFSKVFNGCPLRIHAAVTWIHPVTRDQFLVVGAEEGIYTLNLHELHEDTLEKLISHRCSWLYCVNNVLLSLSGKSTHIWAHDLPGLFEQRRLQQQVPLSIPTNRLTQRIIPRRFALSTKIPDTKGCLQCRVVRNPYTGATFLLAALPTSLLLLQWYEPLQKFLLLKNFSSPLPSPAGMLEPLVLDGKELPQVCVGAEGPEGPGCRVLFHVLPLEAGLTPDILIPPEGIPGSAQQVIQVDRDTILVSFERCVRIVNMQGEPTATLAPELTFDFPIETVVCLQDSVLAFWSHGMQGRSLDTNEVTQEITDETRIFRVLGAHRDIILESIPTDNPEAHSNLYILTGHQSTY
# PLK3 (human) = PLK3 (human) (UniProt Q9H4B4)
# FLT4 (human) = FLT4 (human) (UniProt P35916)
# MKNK2 (human) = MKNK2 (human) (UniProt Q9HBH9)
# EPHA2 (human) = EPHA2 (human) (UniProt P29317)
# Sequence of PRKD3 (human) (O94806 whole entry, looked up): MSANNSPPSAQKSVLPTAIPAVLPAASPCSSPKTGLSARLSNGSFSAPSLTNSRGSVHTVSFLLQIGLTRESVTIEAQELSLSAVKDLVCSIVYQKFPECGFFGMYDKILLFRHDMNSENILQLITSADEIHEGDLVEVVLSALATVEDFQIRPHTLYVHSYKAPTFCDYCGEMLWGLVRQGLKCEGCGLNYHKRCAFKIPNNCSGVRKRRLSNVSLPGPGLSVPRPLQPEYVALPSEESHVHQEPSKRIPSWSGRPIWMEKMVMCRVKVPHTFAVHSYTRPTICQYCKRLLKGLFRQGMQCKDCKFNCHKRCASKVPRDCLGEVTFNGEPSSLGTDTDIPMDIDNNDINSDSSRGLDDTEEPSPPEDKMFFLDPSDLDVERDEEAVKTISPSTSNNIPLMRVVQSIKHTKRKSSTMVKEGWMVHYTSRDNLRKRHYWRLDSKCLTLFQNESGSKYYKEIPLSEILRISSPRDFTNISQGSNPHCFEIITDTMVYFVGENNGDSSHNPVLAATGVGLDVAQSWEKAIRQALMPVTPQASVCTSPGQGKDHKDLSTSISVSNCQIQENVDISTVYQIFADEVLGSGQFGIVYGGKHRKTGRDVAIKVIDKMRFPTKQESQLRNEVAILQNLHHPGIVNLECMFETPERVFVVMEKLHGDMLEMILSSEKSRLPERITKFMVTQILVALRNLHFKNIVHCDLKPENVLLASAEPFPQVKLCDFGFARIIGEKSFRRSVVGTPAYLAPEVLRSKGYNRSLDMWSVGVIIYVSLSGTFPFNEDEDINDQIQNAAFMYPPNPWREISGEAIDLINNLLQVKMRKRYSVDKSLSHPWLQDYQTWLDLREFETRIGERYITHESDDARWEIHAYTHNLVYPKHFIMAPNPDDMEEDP
Structure (SMILES),"kinase still bound, per cent of control (STK16 (human))","kinase still bound, per cent of control (PRKD3 (human))","kinase still bound, per cent of control (EPHA3 (human))","kinase still bound, per cent of control (CLK3 (human))","kinase still bound, per cent of control (CDK7 (human))","kinase still bound, per cent of control (TESK1 (human))","kinase still bound, per cent of control (MUSK (human))","kinase still bound, per cent of control (DCLK1 (human))","kinase still bound, per cent of control (STK17A (human))","kinase still bound, per cent of control [1]","kinase still bound, per cent of control (AURKA (human))","kinase still bound, per cent of control (PDPK1 (human))","kinase still bound, per cent of control (RPS6KA1 KD2 (human))","kinase still bound, per cent of control (FER (human))","kinase still bound, per cent of control (MAPK8 (human))","kinase still bound, per cent of control (MAPK7 (human))","kinase still bound, per cent of control (SGK110 (human))","kinase still bound, per cent of control (CSNK1E (human))","kinase still bound, per cent of control (WEE2 (human))","kinase still bound, per cent of control (FGFR2 (human))",also measured
COc1cc(N2CCN(C)CC2)ccc1Nc1nc(N)c(C(=O)c2c(Cl)cccc2Cl)s1,90%,70%,82%,2%,2.8%,100%,90%,3%,100%,100%,100%,100%,58%,82%,81%,14%,100%,56%,100%,91%,"kinase still bound, per cent of control (CDK16 (human)): 62%; kinase still bound, per cent of control (SIK2 (human)): 100%; kinase still bound, per cent of control (ADCK4 (human)): 81%; kinase still bound, per cent of control (TNNI3K (human)): 82%; kinase still bound, per cent of control (DDR2 (human)): 100%; kinase still bound, per cent of control (PRKACB (human)): 100%; kinase still bound, per cent of control (ACVR1B (human)): 100%; kinase still bound, per cent of control (ULK1 (human)): 93%; kinase still bound, per cent of control (ULK2 (human)): 72%; kinase still bound, per cent of control (MST1R (human)): 96%; kinase still bound, per cent of control (ERBB2 (human)): 100%; kinase still bound, per cent of control (PRKAA2 (human)): 68%; kinase still bound, per cent of control (EPHB1 (human)): 87%; kinase still bound, per cent of control (RPS6KA2 KD2 (human)): 2.9%; kinase still bound, per cent of control (CLK1 (human)): 22%; kinase still bound, per cent of control (MAP4K2 (human)): 77%; kinase still bound, per cent of control (PLK3 (human)): 88%; kinase still bound, per cent of control (FLT4 (human)): 100%; kinase still bound, per cent of control (MKNK2 (human)): 77%"
CCOc1cc2ncc(C#N)c(Nc3ccc(OCc4ccccn4)c(Cl)c3)c2cc1NC(=O)/C=C/CN(C)C,96%,65%,85%,86%,68%,100%,100%,100%,37%,100%,87%,88%,85%,37%,16%,100%,100%,26%,98%,96%,"kinase still bound, per cent of control (EPHA2 (human)): 94%; kinase still bound, per cent of control (SIK2 (human)): 58%; kinase still bound, per cent of control (ADCK4 (human)): 98%; kinase still bound, per cent of control (TNNI3K (human)): 100%; kinase still bound, per cent of control (DDR2 (human)): 100%; kinase still bound, per cent of control (PRKACB (human)): 100%; kinase still bound, per cent of control (ACVR1B (human)): 100%; kinase still bound, per cent of control (ULK1 (human)): 100%; kinase still bound, per cent of control (ULK2 (human)): 100%; kinase still bound, per cent of control (MST1R (human)): 100%; kinase still bound, per cent of control (ERBB2 (human)): 0%; kinase still bound, per cent of control (PRKAA2 (human)): 80%; kinase still bound, per cent of control (EPHB1 (human)): 98%; kinase still bound, per cent of control (RPS6KA2 KD2 (human)): 100%; kinase still bound, per cent of control (CLK1 (human)): 84%; kinase still bound, per cent of control (MAP4K2 (human)): 5.2%; kinase still bound, per cent of control (PLK3 (human)): 94%; kinase still bound, per cent of control (FLT4 (human)): 100%; kinase still bound, per cent of control (MKNK2 (human)): 99%"
Cc1ccc2nc(NCCN)c3ncc(C)n3c2c1,100%,41%,100%,47%,6.3%,79%,100%,84%,68%,23%,100%,100%,46%,98%,66%,0.7%,100%,58%,100%,100%,"kinase still bound, per cent of control (EPHA2 (human)): 93%; kinase still bound, per cent of control (SIK2 (human)): 82%; kinase still bound, per cent of control (ADCK4 (human)): 24%; kinase still bound, per cent of control (TNNI3K (human)): 100%; kinase still bound, per cent of control (DDR2 (human)): 100%; kinase still bound, per cent of control (PRKACB (human)): 100%; kinase still bound, per cent of control (ACVR1B (human)): 97%; kinase still bound, per cent of control (ULK2 (human)): 100%; kinase still bound, per cent of control (MST1R (human)): 100%; kinase still bound, per cent of control (ERBB2 (human)): 100%; kinase still bound, per cent of control (PRKAA2 (human)): 100%; kinase still bound, per cent of control (EPHB1 (human)): 100%; kinase still bound, per cent of control (RPS6KA2 KD2 (human)): 97%; kinase still bound, per cent of control (CLK1 (human)): 72%; kinase still bound, per cent of control (MAP4K2 (human)): 92%; kinase still bound, per cent of control (PLK3 (human)): 94%; kinase still bound, per cent of control (FLT4 (human)): 100%; kinase still bound, per cent of control (MKNK2 (human)): 90%"
